Columns and labels:
HL60 = experiment: CellTiter-Blue cell-based survival/proliferation assay, HL60; conditions: Homo sapiens, HL-60, Leukemia cell line HL60, 48 h, read-out: Anti-tumoral activity (measured IC50) HL60
Experimental: (§1) Cell-Based Proliferation Screening of Compounds
(§2) CellTiter-Blue cell-based survival/proliferation assay (Promega G8080) was performed on tumor cell lines. A total of 1·10^4 cells/well/50 μl were seeded in a 96-wells plate. Treatment was initiated by addition of a 2× drug solution of 1/10 serial dilutions ranging from 0 to 10 μM. Cells were grown for 48 h at 37° C. and then incubated with 10 μl/well of Promega CellTiter-Bleue reagent for 4 h at 37° C. The amount of resorufin dye formed was quantified by its fluorescence emission at 590 nm using a scanning multiwell spectrophotometer (OPTIMA, BMG labtech, France). A blank well without cells was used as a background control for the spectrophotometer.

HUT78 = experiment: CellTiter-Blue cell-based survival/proliferation assay, HUT78; conditions: Homo sapiens, Lymphoma cell line HUT78, 48 h, read-out: Anti-tumoral activity (measured IC50) HUT78
Experimental: as §1, §2

KARPAS299 = experiment: CellTiter-Blue cell-based survival/proliferation assay, KARPAS299; conditions: Homo sapiens, KARPAS-299, Lymphoma cell line KARPAS299, 48 h, read-out: Anti-tumoral activity (measured IC50) KARPAS299
Experimental: as §1, §2

REC1 = experiment: CellTiter-Blue cell-based survival/proliferation assay, REC1; conditions: Homo sapiens, Lymphoma cell line REC1, 48 h, read-out: Anti-tumoral activity (measured IC50) REC1
Experimental: as §1, §2

OPM2 = experiment: CellTiter-Blue cell-based survival/proliferation assay, OPM2; conditions: Homo sapiens, OPM-2, Myeloma cell line OPM2, 48 h, read-out: Anti-tumoral activity (measured IC50) OPM2
Experimental: as §1, §2

A498 = experiment: CellTiter-Blue cell-based survival/proliferation assay, A498; conditions: Homo sapiens; A498 kidney tumor cell line, 48 h
Experimental: as §1, §2

A549 = experiment: CellTiter-Blue cell-based survival/proliferation assay, A549; conditions: Homo sapiens; A549 lung tumor cell line, 48 h
Experimental: as §1, §2

ACHN = experiment: CellTiter-Blue cell-based survival/proliferation assay, ACHN; conditions: Homo sapiens; ACHN kidney tumor cell line, 48 h
Experimental: as §1, §2

AGS = experiment: CellTiter-Blue cell-based survival/proliferation assay, AGS; conditions: Homo sapiens; AGS stomach tumor cell line, 48 h
Experimental: as §1, §2

BT20 = experiment: CellTiter-Blue cell-based survival/proliferation assay, BT20; conditions: Homo sapiens, BT-20; BT20 breast tumor cell line, 48 h
Experimental: as §1, §2

BXPC3 = experiment: CellTiter-Blue cell-based survival/proliferation assay, BXPC3; conditions: Homo sapiens, BXPC-3; BXPC3 pancreas tumor cell line, 48 h
Experimental: as §1, §2

CALU6 = experiment: CellTiter-Blue cell-based survival/proliferation assay, CALU6; conditions: Homo sapiens, Calu-6; CALU6 lung tumor cell line, 48 h
Experimental: as §1, §2

CLS354 = experiment: CellTiter-Blue cell-based survival/proliferation assay, CLS354; conditions: Homo sapiens, CLS-354; CLS354_4 head & neck tumor cell line, 48 h
Experimental: as §1, §2

DLD1 = experiment: CellTiter-Blue cell-based survival/proliferation assay, DLD1; conditions: Homo sapiens, DLD-1; DLD_1 colorectal tumor cell line, 48 h
Experimental: as §1, §2

DU145 = experiment: CellTiter-Blue cell-based survival/proliferation assay, DU145; conditions: Homo sapiens, DU-145; DU145 prostate tumor cell line, 48 h
Experimental: as §1, §2

H1299 = experiment: CellTiter-Blue cell-based survival/proliferation assay, H1299; conditions: Homo sapiens, NCI-H1299; H1299 lung tumor cell line, 48 h
Experimental: as §1, §2

HCT116 = experiment: CellTiter-Blue cell-based survival/proliferation assay, HCT116; conditions: Homo sapiens, HCT-116; HCT116 colorectal tumor cell line, 48 h
Experimental: as §1, §2

HEP2 = experiment: CellTiter-Blue cell-based survival/proliferation assay, HEP2; conditions: Homo sapiens, HEp-2; HEP2 head & neck tumor cell line, 48 h
Experimental: as §1, §2

HEPG2 = experiment: CellTiter-Blue cell-based survival/proliferation assay, HEPG2; conditions: Homo sapiens; HEPG2 liver tumor cell line, 48 h
Experimental: as §1, §2

HGC27 = experiment: CellTiter-Blue cell-based survival/proliferation assay, HGC27; conditions: Homo sapiens, HGC-27; HGC27 stomach tumor cell line, 48 h
Experimental: as §1, §2

MDAMB231 = experiment: CellTiter-Blue cell-based survival/proliferation assay, MDAMB231; conditions: Homo sapiens, MDA-MB-231; MDAMB231 breast tumor cell line, 48 h
Experimental: as §1, §2

MESSA = experiment: CellTiter-Blue cell-based survival/proliferation assay, MESSA; conditions: Homo sapiens, MES-SA; MESSA ovary tumor cell line, 48 h
Experimental: as §1, §2

PANC1 = experiment: CellTiter-Blue cell-based survival/proliferation assay, PANC1; conditions: Homo sapiens, PANC-1; PANC_1 pancreas tumor cell line, 48 h
Experimental: as §1, §2

PC3 = experiment: CellTiter-Blue cell-based survival/proliferation assay, PC3; conditions: Homo sapiens, PC-3; PC3 prostate tumor cell line, 48 h
Experimental: as §1, §2

PLCPRF5 = experiment: CellTiter-Blue cell-based survival/proliferation assay, PLCPRF5; conditions: Homo sapiens, PLC-PRF-5; PLC_PRF5 liver tumor cell line, 48 h
Experimental: as §1, §2

SW579 = experiment: CellTiter-Blue cell-based survival/proliferation assay, SW579; conditions: Homo sapiens; SW579 head & neck tumor cell line, 48 h
Experimental: as §1, §2

TOV112D = experiment: CellTiter-Blue cell-based survival/proliferation assay, TOV112D; conditions: Homo sapiens; TOV112D ovary tumor cell line, 48 h
Experimental: as §1, §2

[1] = system: panel of about 34 human tumor cell lines; experiment: Cell-based proliferation screening on panel of tumor cell lines; conditions: solid tumor cell line, cell line unknown, 48 h, read-out: IC50, solid tumor cell line of column 6 (last section of Table 3)
Experimental: Compounds of formula (I) were tested against a panel of about 34 human tumor cell lines representing 17 cancer type, namely leukemia (represented by 1 cell line), lymphoma (4 cell lines), myeloma (1 cell line), colorectal (2 cell lines), head and neck (3 cell lines), lung (3 cell lines), melanoma (2 cell lines), pancreas (2 cell lines), prostate (2 cell lines), ovary (2 cell lines) breast (2 cell lines), kidney (2 cell lines), stomach (2 cell lines), liver (2 cell lines), glioblastoma (2 cell lines), osteosarcoma (1 cell line), Ewing Sarcoma (1 cell line).
as §1, §2

Measured: IC50

CC(=O)NCCOCc1ccc(C)c(Nc2ncc(-c3ccc(-n4cccn4)cc3)o2)c1 [Example 025, N-(2-{4-Methyl-3-[5-(4-pyrazol-1-yl-phenyl)-oxazol-2-ylamino]-benzyloxy}-ethyl)-acetamide]
> 1000 nM: all assays above

Cc1ccc(COCCO)cc1Nc1ncc(-c2ccc(-n3cccn3)cc2)o1 [Example 026, 2-{4-Methyl-3-[5-(4-pyrazol-1-yl-phenyl)-oxazol-2-ylamino]-benzyloxy}-ethanol]
> 1000 nM: all assays above

Cc1ccc(CO)cc1Nc1ncc(-c2ccc(-n3cccn3)cc2)o1 [Example 027, {4-Methyl-3-[5-(4-pyrazol-1-yl-phenyl)-oxazol-2-ylamino]-phenyl}-methanol]
> 1000 nM: all assays above

Cc1ccc(OCCN2CCOCC2)cc1Nc1ncc(-c2ccc(-n3cccn3)cc2)o1 [Example 029, [2-Methyl-5-(2-morpholin-4-yl-ethoxy)-phenyl]-[5-(4-pyrazol-1-yl-phenyl)-oxazol-2-yl]-amine]
> 1000 nM: all assays above

Source: patent US10570122B2, “Compounds with anti-tumoral activity” (AB Science, priority 2015, dated 2020)
